Results published in paper PMC11889516 (Microbial Biotechnology, 2025).

Columns and labels:
CYP116B234 = molecular target: T1, CYP116B234 (Rhodococcus globerulus, UniProt A0ABU4C0V8); experiment: UV-visible difference spectroscopy titration (heme spin-state shift); also NADPH consumption and turnover with purified enzyme; format: binding
T1 construct: gene R3Q16_26300; full-length, N-terminal polyhistidine tag (GenBank MCE4265947.1)
T1 sequence (A0ABU4C0V8 1-767): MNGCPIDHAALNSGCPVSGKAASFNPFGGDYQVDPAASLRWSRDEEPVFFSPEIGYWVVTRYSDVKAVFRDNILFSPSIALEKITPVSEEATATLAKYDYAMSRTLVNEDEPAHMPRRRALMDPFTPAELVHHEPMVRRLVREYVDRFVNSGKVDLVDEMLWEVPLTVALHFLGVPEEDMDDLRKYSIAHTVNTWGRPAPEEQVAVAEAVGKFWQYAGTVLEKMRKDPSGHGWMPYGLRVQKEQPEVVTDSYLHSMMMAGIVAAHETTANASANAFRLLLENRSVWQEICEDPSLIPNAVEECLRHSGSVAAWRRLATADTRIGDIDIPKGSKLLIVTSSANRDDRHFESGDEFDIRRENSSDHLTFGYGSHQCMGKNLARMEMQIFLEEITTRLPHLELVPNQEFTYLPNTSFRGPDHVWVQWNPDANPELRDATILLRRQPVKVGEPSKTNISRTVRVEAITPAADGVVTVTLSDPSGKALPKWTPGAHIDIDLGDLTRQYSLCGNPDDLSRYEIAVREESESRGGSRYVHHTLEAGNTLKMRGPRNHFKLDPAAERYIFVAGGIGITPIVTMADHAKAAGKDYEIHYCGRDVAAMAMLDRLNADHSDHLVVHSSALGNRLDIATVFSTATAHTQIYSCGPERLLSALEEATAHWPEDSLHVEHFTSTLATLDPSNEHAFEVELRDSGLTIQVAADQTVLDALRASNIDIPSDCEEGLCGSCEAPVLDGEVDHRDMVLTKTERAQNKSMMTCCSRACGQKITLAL

purified protein [1] = substrate: NC(=O)C1=CN([C@@H]2O[C@H](COP(=O)(O)OP(=O)(O)OC[C@H]3O[C@@H](n4cnc5c(N)ncnc54)[C@H](O)[C@@H]3O)[C@@H](O)[C@H]2O)C=CC1; experiment: purified protein; conditions: FMN, [2Fe-2S], heme reductase domain; varied: cofactor
purified protein [2] = substrate: NC(=O)C1=CN([C@@H]2O[C@H](COP(=O)(O)OP(=O)(O)OC[C@H]3O[C@@H](n4cnc5c(N)ncnc54)[C@H](OP(=O)(O)O)[C@@H]3O)[C@@H](O)[C@H]2O)C=CC1; experiment: purified protein; format: biochemical, Rhodococcus globerulus; conditions: FMN, [2Fe-2S], heme reductase domain; varied: cofactor

Molecule: O=C(O)Cc1ccccc1O [2-HPA, 2‐hydroxyphenylacetic acid]
- Kd (CYP116B234): 700 ± 100 nM

Molecule: O=C(O)CCc1ccccc1O [HPPA, 3‐(2‐hydroxyphenyl)propionic acid]
- Kd (CYP116B234): 1900 ± 100 nM

B1: CYP116B234 (Rhodococcus globerulus) (protein)
chain: T1 sequence (A0ABU4C0V8 1-767)
notes: full-length, N-terminal polyhistidine tag (GenBank MCE4265947.1)
- Km (purified protein [1]): 240 ± 20 µM
- Km (purified protein [2]): 0.5 ± 0.4 µM
